Like-named read-outs stand apart in the source and are kept apart here.
Legend:
[1] = log P by HPLC on reversed-phase columns (EEC Directive 79/831 Annex V.A8); type: physicochemical
[2] = system: caterpillars of the armyworm (Spodoptera frugiperda); test: Spodoptera frugiperda test (SPODFR spray treatment); type: in vivo; conditions: for pest or weed control at 100 g/ha: Spodoptera frugiperda, 168 h, read-out: activity in % (caterpillars killed)
[3] = system: larvae of the mustard beetle (Phaedon cochleariae); test: Phaedon test (PHAECO spray treatment); conditions: for pest or weed control at 100 g/ha: Phaedon cochleariae, 168 h, read-out: activity in % (beetle larvae killed)
[4] = reversed-phase C18 HPLC column, pH 2.7, HPLC reversed-phase C18, acidic range pH 2.7 (HCOOH), only or first value of the cell, read-out: log P
[5] = application rate 100 g/ha, after 7 days

Row | SMILES | chromatographic logP ([1]; pH 2.7, log P) | pest or weed control at 100 g/ha [2] | pest or weed control at 100 g/ha [3] | chromatographic logP [1, 4] | pest or weed control at 100 g/ha [2, 5] | log P ([1]; HPLC reversed-phase C18, acidic range pH 2.7 (HCOOH), only or first value of the cell) | activity in % (caterpillars killed) [2, 5] | activity in % (beetle larvae killed) [3, 5]
1 | COc1ccccc1CNC(=O)c1cc(Cl)cc(C)c1NC(=O)c1cc(Cn2nnc(C(F)(F)F)n2)nn1-c1ncccc1Cl [Example 100] | 3.94 | 100% | 100% |  |  |  |  | 
2 | Cc1cc(C#N)cc(C(=O)NCc2ccc(OC(F)F)cc2)c1NC(=O)c1cc(Cn2nnc(C(F)(F)F)n2)nn1-c1ncccc1Cl [Example 168] |  |  | 100% | 3.49 | 100% |  |  | 
3 | Cc1cc(Cl)cc(C(=O)NC(C)c2ccccc2C(F)(F)F)c1NC(=O)c1cc(Cn2nnc(C(F)(F)F)n2)nn1-c1ncccc1Cl (stereo not drawn) [Example 123] |  |  | 100% | 4.35 | 100% |  |  | 
4 | Cc1cc(C#N)cc(C(=O)NC2COC2)c1NC(=O)c1cc(Cn2nc(C(F)(F)F)nc2C(F)(F)F)nn1-c1ncccc1Cl [Example 13] | 2.95 | 100% | 100% |  |  |  |  | 
5 | Cc1cc(Cl)cc(C(=O)N[C@@H](C)c2ccc([N+](=O)[O-])cc2)c1NC(=O)c1cc(Cn2nnc(C(F)(F)F)n2)nn1-c1ncccc1Cl [Example 129] |  |  | 100% | 3.86 | 100% |  |  | 
6 | Cc1cc(C#N)cc(C(=O)NCc2cccc(OC(F)(F)F)c2)c1NC(=O)c1cc(Cn2nnc(C(F)(F)F)n2)nn1-c1c(Cl)cccc1Cl [Example 214] |  |  | 100% | 4.23 | 100% |  |  | 
7 | Cc1ccc(C(C)NC(=O)c2cc(Cl)cc(C)c2NC(=O)c2cc(Cn3nnc(C(F)(F)F)n3)nn2-c2ncccc2Cl)cc1 (stereo not drawn) [Example 114] | 4.24 | 100% | 100% |  |  |  |  | 
8 | Cc1cc(F)cc(C(=O)NCc2cccc(OC(F)(F)F)c2)c1NC(=O)c1cc(Cn2nnc(C(F)(F)F)n2)nn1-c1ncccc1Cl [Example 169] |  |  | 100% | 3.95 | 100% |  |  | 
9 | Cc1cc(Cl)cc(C(=O)NCc2ccccc2F)c1NC(=O)c1cc(Cn2nnc(C(F)(F)F)n2)nn1-c1ncccc1Cl [Example 83] | 3.77 | 100% | 100% |  |  |  |  | 
10 | Cc1cc(Cl)cc(C(=O)NCc2cccc(-c3ccccc3)n2)c1NC(=O)c1cc(Cn2nnc(C(F)(F)F)n2)nn1-c1ncccc1Cl [Example 233] |  |  | 100% | 4.27 | 100% |  |  | 
11 | Cc1cc(F)cc(C(=O)NCc2ccc(OC(F)F)cc2)c1NC(=O)c1cc(Cn2nnc(C(F)(F)F)n2)nn1-c1ncccc1Cl [Example 170] |  |  | 100% | 3.55 | 100% |  |  | 
12 | Cc1cc(Cl)cc(C(=O)NC(C)c2ccc(F)cc2)c1NC(=O)c1cc(Cn2nnc(C(F)(F)F)n2)nn1-c1ncccc1Cl (stereo not drawn) [Example 122] | 4 | 100% | 100% |  |  |  |  | 
13 | O=C(NCc1ccc(Cl)cc1)c1cc(Br)cc(Cl)c1NC(=O)c1cc(Cn2nnc(C(F)(F)F)n2)nn1-c1ncccc1Cl [Example 205] | 4.08 | 100% | 100% |  |  |  |  | 
14 | Cc1cc(Cl)cc(C(=O)NCc2cc(Cl)cc(Cl)c2)c1NC(=O)c1cc(Cn2nnc(C(F)(F)F)n2)nn1-c1ncccc1Cl [Example 94] | 4.49 | 100% | 100% |  |  |  |  | 
15 | Cc1cc(C#N)cc(C(=O)NCc2cccc(OC(F)(F)F)c2)c1NC(=O)c1cc(Cn2nnc(C(F)F)n2)nn1-c1ncccc1Cl [Example 163] |  |  | 100% | 3.42 | 100% |  |  | 
16 | Cc1cc(Cl)cc(C(=O)NCc2cc(F)cc(F)c2F)c1NC(=O)c1cc(Cn2nnc(C(F)(F)F)n2)nn1-c1ncccc1Cl [Example 109] |  |  | 100% | 3.98 | 100% |  |  | 
17 | Cc1cc(F)cc(C(=O)NCc2ccc(OC(F)(F)F)cc2)c1NC(=O)c1cc(Cn2nnc(C(F)(F)F)n2)nn1-c1ncccc1Cl [Example 155] |  |  | 100% | 3.92 | 100% |  |  | 
18 | CCc1cccc(CNC(=O)c2cc(Cl)cc(C)c2NC(=O)c2cc(Cn3nnc(C(F)(F)F)n3)nn2-c2ncccc2Cl)n1 [Example 228] | 2.22 | 100% | 100% |  |  |  |  | 
19 | Cc1ccccc1CNC(=O)c1cc(Cl)cc(C)c1NC(=O)c1cc(Cn2nnc(C(F)(F)F)n2)nn1-c1ncccc1Cl [Example 119] | 4.03 | 100% | 100% |  |  |  |  | 
20 | Cc1cc(C#N)cc(C(=O)NCc2ccccc2OC(F)(F)F)c1NC(=O)c1cc(Cn2nnc(C(F)(F)F)n2)nn1-c1ccccc1Cl [Example 217] |  |  | 100% | 4.28 | 100% |  |  | 
21 | O=C(NCc1ccc(Cl)cc1)c1cc(Cl)cc(F)c1NC(=O)c1cc(Cn2nnc(C(F)(F)F)n2)nn1-c1ncccc1Cl [Example 208] |  |  |  |  |  | 3.95 | 100% | 100%
22 | Cc1cc(I)cc(C(=O)NCc2cccc(OC(F)(F)F)c2)c1NC(=O)c1cc(Cn2nnc(C(F)(F)F)n2)nn1-c1ncccc1Cl [Example 156] |  |  | 100% | 4.47 | 100% |  |  | 
23 | Cc1cc(Cl)cc(C(=O)NC(C)c2cccc(F)c2)c1NC(=O)c1cc(Cn2nnc(C(F)(F)F)n2)nn1-c1ncccc1Cl (stereo not drawn) [Example 143] | 4 | 100% | 100% |  |  |  |  | 
24 | Cc1cc(Cl)cc(C(=O)NC2COC2)c1NC(=O)c1cc(Cn2nnc(C(F)(F)C(F)(F)F)n2)nn1-c1ncccc1Cl [Example 9] | 3.21 | 100% | 100% |  |  |  |  | 
25 | Cc1cc(C#N)cc(C(=O)NCc2ccc(OC(F)(F)F)cc2)c1NC(=O)c1cc(Cn2nnc(C(F)(F)F)n2)nn1-c1ncccc1Cl [Example 167] |  |  | 100% | 3.9 | 100% |  |  | 
26 | Cc1cc(Cl)cc(C(=O)NCc2ccccc2OC(F)F)c1NC(=O)c1cc(Cn2nnc(C(F)(F)F)n2)nn1-c1ncccc1Cl [Example 158] |  |  | 100% | 4 | 100% |  |  | 
27 | Cc1cc(Cl)cc(C(=O)NCc2ccccc2)c1NC(=O)c1cc(Cn2nnc(C(F)(F)F)n2)nn1-c1ncccc1Cl [Example 81] | 3.77 | 100% | 100% |  |  |  |  | 
28 | Cc1cc(Cl)cc(C(=O)N[C@H](C)c2ccccc2)c1NC(=O)c1cc(Cn2nnc(C(F)(F)F)n2)nn1-c1ncccc1Cl [Example 85] | 3.92 | 100% | 100% |  |  |  |  | 
29 | Cc1cc(Cl)cc(C(=O)NC(C)c2ccccc2)c1NC(=O)c1cc(Cn2nnc(C(F)(F)F)n2)nn1-c1ncccc1Cl (stereo not drawn) [Example 84] | 3.92 | 100% | 100% |  |  |  |  | 
30 | Cc1cc(Cl)cc(C(=O)NCc2ccccc2)c1NC(=O)c1cc(Cn2nc(C(F)(F)F)c(C(F)(F)F)n2)nn1-c1ncccc1Cl [Example 134] |  |  | 100% | 4.52 | 100% |  |  | 
